Data: BindingDB's records for doi:10.1016/0960-894X(95)00507-P (Eli Lilly, 1995)
pIC50: −log10 of the molar value.

biological target: T1, Dimer of Gag-Pol polyprotein [489-587] (Human immunodeficiency virus 1, UniProt P12497); assay: Protease Inhibition Assay; conditions: not given
T1 construct: 489-587
Text: In the presence of HIV-l protease, the substrate is rapidly cleaved into two parts. The biotinylated amino terminal fragment binds to the avidin Pandex beads while the FITC-containing carboxy1 terminal fragment is removed through the membrane.

SMILES	pIC50
CC(C)[C@@H]1[C@H](OC(=O)N[C@@H](Cc2ccccc2)[C@H](O)CN2C[C@H]3CCCC[C@H]3CC2C(=O)NC(C)(C)C)CCS1(=O)=O (stereo partly drawn) [(2R,3R)-1,1-dioxo-2-(propan-2-yl)--thiolan-3-yl N-[(2S,3R)-4-[(4aS,8aS)-3-(tert-butylcarbamoyl)-decahydroisoquinolin-2-yl]-3-hydroxy-1-phenylbutan-2-yl]carbamate]	8.37
CC(C)[C@H]1SCC[C@H]1OC(=O)N[C@@H](Cc1ccccc1)[C@H](O)CN1C[C@H]2CCS[C@H]2CC1C(=O)NC(C)(C)C (stereo partly drawn) [(2R,3R)-2-(propan-2-yl)thiolan-3-yl N-[(2S,3R)-4-[(3aR,7aS)-6-(tert-butylcarbamoyl)-octahydrothieno[3,2-c]pyridin-5-yl]-3-hydroxy-1-phenylbutan-2-yl]carbamate]	9.59
CC(C)[C@H]1[C@@H](OC(=O)N[C@@H](CSc2ccccc2)[C@H](O)CN2C[C@H]3CCS[C@H]3CC2C(=O)NC(C)(C)C)CCS1(=O)=O (stereo partly drawn) [(2S,3S)-1,1-dioxo-2-(propan-2-yl)--thiolan-3-yl N-[(2R,3R)-4-[(3aR,7aS)-6-(tert-butylcarbamoyl)-octahydrothieno[3,2-c]pyridin-5-yl]-3-hydroxy-1-(phenylsulfanyl)butan-2-yl]carbamate]	9.02
CC(C)[C@@H]1SCC[C@@H]1OC(=O)N[C@@H](Cc1ccccc1)[C@H](O)CN1C[C@H]2CCS[C@H]2CC1C(=O)NC(C)(C)C (some centres not stated) [hydroxyethylene isostere]	8.59
CC(C)[C@@H]1[C@H](OC(=O)N[C@@H](CSc2ccccc2)[C@H](O)CN2C[C@H]3CCS[C@H]3CC2C(=O)NC(C)(C)C)CCS1(=O)=O (some centres not stated) [hydroxyethylene isostere]	9.38
CC(C)[C@@H]1[C@H](OC(=O)N[C@@H](Cc2ccccc2)[C@H](O)CN2C[C@H]3CCS[C@H]3CC2C(=O)NC(C)(C)C)CCS1(=O)=O (some centres not stated) [hydroxyethylene isostere]	8.89
CC(C)[C@H]1[C@@H](OC(=O)N[C@@H](Cc2ccccc2)[C@H](O)CN2C[C@H]3CCS[C@H]3CC2C(=O)NC(C)(C)C)CCS1(=O)=O (some centres not stated) [hydroxyethylene isostere]	8.59

same assay, conditions: pH 5.5; 22 °C

SMILES	pIC50
C[C@@H]1OCC[C@@H]1OC(=O)N[C@@H](CSc1ccccc1)[C@H](O)CN1C[C@H]2CCS[C@H]2CC1C(=O)NC(C)(C)C (stereo partly drawn) [(2S,3S)-2-methyloxolan-3-yl N-[(2R,3R)-4-[(3aR,7aS)-6-(tert-butylcarbamoyl)-octahydrothieno[3,2-c]pyridin-5-yl]-3-hydroxy-1-(phenylsulfanyl)butan-2-yl]carbamate]	9.55
CC(C)(C)NC(=O)C1C[C@@H]2SCC[C@@H]2CN1C[C@@H](O)[C@H](CSc1ccccc1)NC(=O)O[C@@H]1CCS(=O)(=O)C1 (some centres not stated) [hydroxyethylene isostere]	8.70
CC(C)(C)NC(=O)C1C[C@@H]2SCC[C@@H]2CN1C[C@@H](O)[C@H](CSc1ccccc1)NC(=O)O[C@H]1CCS(=O)(=O)C1 (some centres not stated) [hydroxyethylene isostere]	8.77
CC(C)[C@H]1[C@@H](OC(=O)N[C@@H](Cc2ccccc2)[C@H](O)CN2C[C@H]3CCCC[C@H]3CC2C(=O)NC(C)(C)C)CCS1(=O)=O (some centres not stated) [hydroxyethylene isostere]	8.09
C[C@@H]1[C@@H](OC(=O)N[C@@H](CSc2ccccc2)[C@H](O)CN2C[C@H]3CCS[C@H]3CC2C(=O)NC(C)(C)C)CCS1(=O)=O (some centres not stated) [hydroxyethylene isostere]	8.28
C[C@@H]1[C@H](OC(=O)N[C@@H](CSc2ccccc2)[C@H](O)CN2C[C@H]3CCS[C@H]3CC2C(=O)NC(C)(C)C)CCS1(=O)=O (some centres not stated) [hydroxyethylene isostere]	9.12
C[C@@H]1[C@H](OC(=O)N[C@@H](Cc2ccccc2)[C@H](O)CN2C[C@H]3CCCC[C@H]3CC2C(=O)NC(C)(C)C)CCS1(=O)=O (some centres not stated) [hydroxyethylene isostere]	8.00
C[C@H]1OCC[C@H]1OC(=O)N[C@@H](CSc1ccccc1)[C@H](O)CN1C[C@H]2CCS[C@H]2CC1C(=O)NC(C)(C)C (some centres not stated) [hydroxyethylene isostere]	8.52
C[C@H]1[C@@H](OC(=O)N[C@@H](CSc2ccccc2)[C@H](O)CN2C[C@H]3CCS[C@H]3CC2C(=O)NC(C)(C)C)CCS1(=O)=O (some centres not stated) [hydroxyethylene isostere]	9.40
C[C@H]1[C@H](OC(=O)N[C@@H](CSc2ccccc2)[C@H](O)CN2C[C@H]3CCS[C@H]3CC2C(=O)NC(C)(C)C)CCS1(=O)=O (some centres not stated) [hydroxyethylene isostere]	8.85
